In ChEMBL document CHEMBL1201862, “PubChem BioAssay data set” (2004):
The source made the active and inactive calls.

Tests used:
[1] = target: Delta-type opioid receptor (Homo sapiens, UniProt P41143); assay: Counterscreen for agonists of heterodimerization of the mu 1 (OPRM1) and delta 1 (OPRD1) opioid receptors: Luminescence-based cell-based high throughput dose response assay to identify agonists of OPRD1 homodimerization. [Related pubchem assays (depositor defined):AID504326, AID504355, AID504692, AID504904, AID504905]; type: functional
Mu-type opioid receptor = Mu-type opioid receptor (Homo sapiens, UniProt P35372); assay: Counterscreen for agonists of heterodimerization of the mu 1 (OPRM1) and delta 1 (OPRD1) opioid receptors: Luminescence-based cell-based high throughput dose response assay to identify agonists of OPRM1 homodimerization.; type: functional;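 also: U2OS cells expressing OPRM1 and beta-arrestin as split beta-galactosidase partners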
[2] = target: 5-hydroxytryptamine receptor 5A (Homo sapiens, UniProt P47898); assay: Counterscreen for agonists of OPRM1-OPRD1 heterodimerization: luminescence-based cell-based high throughput dose response assay to identify agonists of 5-hydroxytryptamine (serotonin) 5A receptor (HTR5A). [Related pubchem assays (depositor defined):AID504326, AID504355, AID504692, AID504904, AID504905]; type: functional
[3] = NIH-3T3 fibroblast cytotoxicity, dose response, cytotoxicity control, cell-based, fluorescence, Alamar Blue, secondary assay (AID 2327); type: functional;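 also: NIH-3T3 mouse fibroblasts cultured with fluconazole at 8 µg/mL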
[4] = C. albicans growth with fluconazole, confirmation, fluorescence, retest (AID 2467); type: functional, cell-based
[5] = target: T1, Serine/threonine-protein phosphatase (Candida dubliniensis (strain CD36 / CBS 7987 / NCPF 3949 / NRRLY-17841) (Yeast), UniProt B9W6M3); assay: calcineurin pathway inhibitors in yeast reporter, dose response, S. cerevisiae, CDRE-lacZ, luminescence, secondary (AID 2388); type: functional, cell-based;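 also: yeast reporter cells carrying a calcineurin-responsive lacZ construct stimulated with calcium chloride; luminescent beta-galactosidase reporter signal in whole cells rather than isolated phosphatase activity; potency for inhibition where a drop in reporter signal means calcineurin blockade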
T1 sequence (B9W6M3 whole entry): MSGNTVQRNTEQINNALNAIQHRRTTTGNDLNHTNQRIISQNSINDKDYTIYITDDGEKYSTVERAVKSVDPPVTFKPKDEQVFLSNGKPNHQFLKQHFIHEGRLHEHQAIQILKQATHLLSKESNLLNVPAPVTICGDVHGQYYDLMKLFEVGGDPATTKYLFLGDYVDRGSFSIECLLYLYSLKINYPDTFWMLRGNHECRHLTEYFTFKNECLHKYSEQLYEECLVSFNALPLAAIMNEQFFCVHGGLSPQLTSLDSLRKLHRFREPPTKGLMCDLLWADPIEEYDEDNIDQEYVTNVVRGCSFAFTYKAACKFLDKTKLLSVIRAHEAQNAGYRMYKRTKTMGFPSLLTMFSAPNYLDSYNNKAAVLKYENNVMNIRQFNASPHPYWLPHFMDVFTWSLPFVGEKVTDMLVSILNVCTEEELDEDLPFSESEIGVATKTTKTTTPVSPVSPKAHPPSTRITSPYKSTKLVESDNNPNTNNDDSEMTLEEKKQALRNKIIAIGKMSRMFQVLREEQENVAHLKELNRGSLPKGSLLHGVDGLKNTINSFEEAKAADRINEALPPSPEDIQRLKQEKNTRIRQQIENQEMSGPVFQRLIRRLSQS

[6] = target: ATP-dependent molecular chaperone HSP82 (Candida albicans (strain WO-1) (Yeast), UniProt C4YTQ8); assay: loss of DOC-induced GRE-beta-galactosidase reporter signal, dose response, Hsp90 inhibitor project, S. cerevisiae, luminescence (AID 2400); type: functional, cell-based;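 also: beta-galactosidase luminescence from glucocorticoid response element reporter as proxy for Hsp90 function; inhibitor potency where signal loss means Hsp90 inhibition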
[7] = Luminescence Cell-Based Dose Retest to Confirm Inhibitors of Cancer Stem Cells. [Related pubchem assays (depositor defined):AID2717, AID2721]; type: functional; settings: Homo sapiens
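For AC50 in this document: cells exposed to compound for roughly 70 hours or longer before luminescence read.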

Delta-type opioid receptor, sequence (P41143 whole entry): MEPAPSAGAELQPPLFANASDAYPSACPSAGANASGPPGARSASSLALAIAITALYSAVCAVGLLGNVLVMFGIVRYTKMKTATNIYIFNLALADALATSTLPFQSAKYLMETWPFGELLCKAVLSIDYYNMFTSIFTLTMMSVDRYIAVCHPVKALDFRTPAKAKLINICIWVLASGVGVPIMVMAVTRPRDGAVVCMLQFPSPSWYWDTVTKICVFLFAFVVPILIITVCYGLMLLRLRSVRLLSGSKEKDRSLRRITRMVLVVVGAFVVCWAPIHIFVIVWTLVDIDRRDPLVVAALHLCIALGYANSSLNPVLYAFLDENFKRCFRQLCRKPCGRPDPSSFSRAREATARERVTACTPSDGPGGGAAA
Mu-type opioid receptor, sequence (P35372 whole entry): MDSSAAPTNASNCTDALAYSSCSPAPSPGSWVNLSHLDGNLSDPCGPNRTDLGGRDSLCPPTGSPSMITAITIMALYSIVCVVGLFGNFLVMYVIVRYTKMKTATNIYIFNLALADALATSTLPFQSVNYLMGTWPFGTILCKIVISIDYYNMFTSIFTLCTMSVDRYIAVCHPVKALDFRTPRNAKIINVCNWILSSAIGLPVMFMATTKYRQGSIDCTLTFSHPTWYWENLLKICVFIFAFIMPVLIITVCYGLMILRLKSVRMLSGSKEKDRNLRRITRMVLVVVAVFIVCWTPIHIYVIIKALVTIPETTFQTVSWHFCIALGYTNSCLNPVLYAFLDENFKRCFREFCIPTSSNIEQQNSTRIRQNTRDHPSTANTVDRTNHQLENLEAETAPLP
5-hydroxytryptamine receptor 5A, sequence (P47898 whole entry): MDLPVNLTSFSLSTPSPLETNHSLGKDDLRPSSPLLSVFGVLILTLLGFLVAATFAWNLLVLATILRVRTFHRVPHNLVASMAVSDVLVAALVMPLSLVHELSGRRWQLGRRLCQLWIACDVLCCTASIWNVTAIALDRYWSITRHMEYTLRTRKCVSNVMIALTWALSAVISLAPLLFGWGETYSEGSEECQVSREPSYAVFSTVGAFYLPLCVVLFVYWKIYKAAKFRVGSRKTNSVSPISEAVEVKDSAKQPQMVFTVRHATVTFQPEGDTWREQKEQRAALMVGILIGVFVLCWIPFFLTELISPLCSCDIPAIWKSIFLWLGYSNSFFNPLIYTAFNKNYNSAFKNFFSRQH
ATP-dependent molecular chaperone HSP82, sequence (C4YTQ8 whole entry): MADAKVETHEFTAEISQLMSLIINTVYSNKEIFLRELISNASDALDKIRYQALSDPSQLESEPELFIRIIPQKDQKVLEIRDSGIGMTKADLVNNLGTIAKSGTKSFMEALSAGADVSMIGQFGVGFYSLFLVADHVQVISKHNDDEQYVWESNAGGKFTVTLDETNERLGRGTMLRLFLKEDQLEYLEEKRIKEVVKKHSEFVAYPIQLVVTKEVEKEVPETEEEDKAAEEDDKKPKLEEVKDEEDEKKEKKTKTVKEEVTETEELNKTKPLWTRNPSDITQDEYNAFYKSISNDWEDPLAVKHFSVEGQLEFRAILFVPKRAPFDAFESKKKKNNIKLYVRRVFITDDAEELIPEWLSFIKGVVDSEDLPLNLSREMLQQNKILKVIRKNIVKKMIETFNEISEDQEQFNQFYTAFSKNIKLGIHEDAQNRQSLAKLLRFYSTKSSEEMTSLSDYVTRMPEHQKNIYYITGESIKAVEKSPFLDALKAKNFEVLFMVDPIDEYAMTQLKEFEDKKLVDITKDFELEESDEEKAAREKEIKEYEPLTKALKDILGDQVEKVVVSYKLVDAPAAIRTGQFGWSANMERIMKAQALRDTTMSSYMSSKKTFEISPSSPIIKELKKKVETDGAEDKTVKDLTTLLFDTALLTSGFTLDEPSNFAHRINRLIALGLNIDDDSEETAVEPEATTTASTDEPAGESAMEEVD

| SMILES | EC50 [1] | EC50 (Mu-type opioid receptor) | EC50 [2] | EC50 [3] | EC50 [4] | EC50 [5] | EC50 [6] | AC50 [7] |
| --- | --- | --- | --- | --- | --- | --- | --- | --- |
| Cc1ccc2[nH]c(SC(C(=O)Nc3ccc(F)cc3)c3ccccc3)nc2c1 (stereo unspecified) | > 92.5 µM (inactive) | > 92.5 µM (inactive) | > 92.5 µM (inactive) |  |  |  |  |  |
| CCCCCCSc1nnc2nc(O)cc(N)n12 |  |  |  | 79.9 µM (active) | 520 nM (active) | > 180 µM (inactive) | > 150 µM (inactive) |  |
| CC1(NC(=O)CC(c2ccccc2)(c2ccccc2)c2ccccc2)CCN(CCCc2ccccc2)C1=O (stereo unspecified) | > 92.5 µM (inactive) | > 92.5 µM (inactive) | > 92.5 µM (inactive) |  |  |  |  | 5.42 µM (active) |
